We go through two compounds from ChEMBL document CHEMBL4007472, “Identification of novel TACE inhibitors compatible with topical application” (Bioorg Med Chem Lett, 2017).

Molecules are shown by their SMILES. Converted amounts (≈) assume the structure as drawn.

Data set [1] concerns the target T1, Disintegrin and metalloproteinase domain-containing protein 17 (Homo sapiens, UniProt P78536). In words: Inhibition of recombinant human TACE catalytic domain using Mca-Pro-Leu-Ala-Gln-Ala-Val-Dpa-Arg-Ser-Ser-Ser-Arg-NH2 as substrate after 2 hrs by fluorescence assay.
In data set [2] the target is T1, Disintegrin and metalloproteinase domain-containing protein 17. The data set can be described thus: Inhibition of TACE in NHEK assessed as reduction in LPS/TPA-stimulated TNFalpha production preincubated for 1 hr followed by LPS/TPA stimulation for 24 hrs by HTRF assay. (Time-resolved FRET reads energy transfer from a long-lived donor to a nearby acceptor.)
Data set [3] shares this target. The data set can be described thus: Inhibition of TACE in human PBMC assessed as inhibition of TNFalpha production.
A short description of data set [4]: Aqueous solubility of the compound. The format is physicochemical.
Data set [5] concerns the target Macrophage metalloelastase (Homo sapiens, UniProt P39900). In words: Inhibition of MMP12 (unknown origin).
Data set [6] can be described thus: Photoirritancy factor, ratio of EC50 for human neonatal keratinocytes under dark condition to EC50 for human neonatal keratinocytes under 5 J/cm2 UV light exposure. Further details: species or system Neonatal keratinocyte.
The target in another data set is Stromelysin-1 (Homo sapiens, UniProt P08254). The data set can be described thus: Inhibition of MMP3 (unknown origin).
Data set [7] has as its target T2, Disintegrin and metalloproteinase domain-containing protein 9 (Homo sapiens, UniProt Q13443).
T2 sequence (Q13443 whole entry): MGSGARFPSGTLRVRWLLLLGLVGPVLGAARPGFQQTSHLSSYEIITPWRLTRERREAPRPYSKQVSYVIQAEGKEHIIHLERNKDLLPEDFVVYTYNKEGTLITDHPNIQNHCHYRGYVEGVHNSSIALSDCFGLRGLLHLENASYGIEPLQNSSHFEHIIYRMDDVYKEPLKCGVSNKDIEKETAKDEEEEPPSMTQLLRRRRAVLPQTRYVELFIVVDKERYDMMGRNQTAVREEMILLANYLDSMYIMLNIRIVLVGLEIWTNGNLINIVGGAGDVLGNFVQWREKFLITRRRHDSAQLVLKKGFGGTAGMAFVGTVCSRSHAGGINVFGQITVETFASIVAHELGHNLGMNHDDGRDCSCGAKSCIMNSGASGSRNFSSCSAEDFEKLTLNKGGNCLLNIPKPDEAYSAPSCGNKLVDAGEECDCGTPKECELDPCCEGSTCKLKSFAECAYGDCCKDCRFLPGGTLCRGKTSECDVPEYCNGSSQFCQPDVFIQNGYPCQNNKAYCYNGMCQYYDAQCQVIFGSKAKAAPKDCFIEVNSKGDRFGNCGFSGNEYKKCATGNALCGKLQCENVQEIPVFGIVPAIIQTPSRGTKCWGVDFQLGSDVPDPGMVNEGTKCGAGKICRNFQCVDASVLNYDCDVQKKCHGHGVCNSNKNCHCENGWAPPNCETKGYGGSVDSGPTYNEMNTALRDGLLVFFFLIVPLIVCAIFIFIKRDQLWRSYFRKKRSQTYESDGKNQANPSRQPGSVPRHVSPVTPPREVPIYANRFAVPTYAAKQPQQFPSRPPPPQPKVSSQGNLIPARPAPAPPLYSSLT
The data set can be described thus: Inhibition of ADAM9 (unknown origin).

Data set [8] is described as follows: Solubility of the compound in PG/EtOH96. The format is physicochemical.
Data set [9] is described as follows: Stability in human liver microsomes assessed as parent compound remaining at 1 uM after 15 mins by LC-MS/MS analysis. The data set is classed as ADME, microsome. Particulars: read-out: Stability. Background: Liver microsomes are vesicles of endoplasmic reticulum, rich in cytochrome P450 enzymes.
The target of data set [10] is Matrix metalloproteinase-9 (Homo sapiens, UniProt P14780). The data set can be described thus: Inhibition of MMP9 (unknown origin).
The next data set concerns the target T3, Interstitial collagenase (Homo sapiens, UniProt P03956).
T3 sequence (P03956 whole entry): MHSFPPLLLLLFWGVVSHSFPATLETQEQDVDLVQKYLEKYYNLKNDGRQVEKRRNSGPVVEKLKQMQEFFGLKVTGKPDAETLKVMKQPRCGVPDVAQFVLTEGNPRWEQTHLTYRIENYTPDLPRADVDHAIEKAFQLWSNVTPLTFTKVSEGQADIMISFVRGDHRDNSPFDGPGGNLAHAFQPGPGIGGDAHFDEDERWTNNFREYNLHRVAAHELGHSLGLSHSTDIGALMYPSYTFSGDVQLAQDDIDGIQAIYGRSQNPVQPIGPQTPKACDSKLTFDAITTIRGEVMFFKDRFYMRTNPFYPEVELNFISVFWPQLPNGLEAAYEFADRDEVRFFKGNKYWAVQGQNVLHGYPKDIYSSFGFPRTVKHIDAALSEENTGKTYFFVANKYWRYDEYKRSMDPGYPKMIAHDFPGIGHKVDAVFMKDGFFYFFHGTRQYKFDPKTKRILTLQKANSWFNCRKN
In words: Inhibition of recombinant human MMP1 catalytic domain using Mca-Pro-Leu-Gly-Leu-Dpa-Ala-Arg-NH2 as substrate after 10 mins by fluorescence assay.

Data set [11] can be described thus: Half life in human keratinocytes at 1 uM by LC-MS/MS analysis. The data set is classed as ADME, cell-based, Keratinocyte.
Data set [12] is described as follows: Intrinsic clearance in human hepatocytes assessed per million cells at 1 uM up to 90 mins by LC-MS/MS analysis. The format is ADME, cell-based, Hepatocyte. Particulars: read-out: CLH.
Data set [13] deals with T4, Disintegrin and metalloproteinase domain-containing protein 10 (Homo sapiens, UniProt O14672).
T4 sequence (O14672 whole entry): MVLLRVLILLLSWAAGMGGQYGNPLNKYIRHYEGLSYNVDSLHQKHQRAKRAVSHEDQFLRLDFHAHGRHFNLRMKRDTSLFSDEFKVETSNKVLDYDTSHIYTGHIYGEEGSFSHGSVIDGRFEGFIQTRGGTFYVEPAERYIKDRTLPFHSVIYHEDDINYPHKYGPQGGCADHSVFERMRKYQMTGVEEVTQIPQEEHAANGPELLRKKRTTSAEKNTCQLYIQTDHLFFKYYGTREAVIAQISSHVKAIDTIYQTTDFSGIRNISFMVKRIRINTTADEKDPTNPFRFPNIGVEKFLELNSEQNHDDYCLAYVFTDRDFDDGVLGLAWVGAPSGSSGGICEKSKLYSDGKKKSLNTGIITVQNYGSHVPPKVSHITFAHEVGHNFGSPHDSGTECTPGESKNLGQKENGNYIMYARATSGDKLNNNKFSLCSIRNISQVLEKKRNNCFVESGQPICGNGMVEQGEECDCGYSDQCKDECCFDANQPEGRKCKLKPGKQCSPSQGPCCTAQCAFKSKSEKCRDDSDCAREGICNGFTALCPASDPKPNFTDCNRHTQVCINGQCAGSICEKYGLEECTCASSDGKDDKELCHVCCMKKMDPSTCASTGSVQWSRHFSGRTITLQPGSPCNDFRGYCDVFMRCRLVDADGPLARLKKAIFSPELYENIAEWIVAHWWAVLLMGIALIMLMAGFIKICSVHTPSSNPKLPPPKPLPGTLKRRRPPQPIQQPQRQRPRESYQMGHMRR
In words: Inhibition of ADAM10 (unknown origin).

Data set [14] can be described thus: Fraction unbound in human plasma at 5 uM after 4 hrs by LC-MS/MS based equilibrium dialysis method. The data set is classed as ADME, cell-free. (In general: In equilibrium dialysis free small molecules cross a membrane that holds back macromolecules.)

T1 sequence (P78536 whole entry, the tested form may be a part): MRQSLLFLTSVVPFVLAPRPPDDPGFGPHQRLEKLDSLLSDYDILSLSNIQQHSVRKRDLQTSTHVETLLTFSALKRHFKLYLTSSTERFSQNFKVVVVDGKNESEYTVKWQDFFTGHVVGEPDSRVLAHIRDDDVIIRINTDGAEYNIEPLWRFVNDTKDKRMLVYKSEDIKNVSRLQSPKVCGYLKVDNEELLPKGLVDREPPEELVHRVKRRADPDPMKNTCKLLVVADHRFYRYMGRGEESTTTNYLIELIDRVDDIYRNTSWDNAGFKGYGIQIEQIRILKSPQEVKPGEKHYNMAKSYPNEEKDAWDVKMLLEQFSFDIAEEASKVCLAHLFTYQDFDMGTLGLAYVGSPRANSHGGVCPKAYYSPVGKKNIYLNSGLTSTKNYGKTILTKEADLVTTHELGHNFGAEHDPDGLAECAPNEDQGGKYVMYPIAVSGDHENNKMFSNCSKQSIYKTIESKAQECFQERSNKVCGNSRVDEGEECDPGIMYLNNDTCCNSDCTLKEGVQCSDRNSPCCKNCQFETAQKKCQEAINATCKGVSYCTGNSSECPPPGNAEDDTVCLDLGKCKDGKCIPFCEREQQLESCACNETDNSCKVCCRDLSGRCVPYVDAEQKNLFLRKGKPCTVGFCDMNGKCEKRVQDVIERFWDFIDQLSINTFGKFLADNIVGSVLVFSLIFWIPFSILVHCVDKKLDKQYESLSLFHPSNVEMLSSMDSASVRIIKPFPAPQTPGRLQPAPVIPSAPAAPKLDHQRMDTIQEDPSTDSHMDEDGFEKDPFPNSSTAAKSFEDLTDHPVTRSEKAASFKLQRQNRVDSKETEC
Sequence of Macrophage metalloelastase (P39900 whole entry): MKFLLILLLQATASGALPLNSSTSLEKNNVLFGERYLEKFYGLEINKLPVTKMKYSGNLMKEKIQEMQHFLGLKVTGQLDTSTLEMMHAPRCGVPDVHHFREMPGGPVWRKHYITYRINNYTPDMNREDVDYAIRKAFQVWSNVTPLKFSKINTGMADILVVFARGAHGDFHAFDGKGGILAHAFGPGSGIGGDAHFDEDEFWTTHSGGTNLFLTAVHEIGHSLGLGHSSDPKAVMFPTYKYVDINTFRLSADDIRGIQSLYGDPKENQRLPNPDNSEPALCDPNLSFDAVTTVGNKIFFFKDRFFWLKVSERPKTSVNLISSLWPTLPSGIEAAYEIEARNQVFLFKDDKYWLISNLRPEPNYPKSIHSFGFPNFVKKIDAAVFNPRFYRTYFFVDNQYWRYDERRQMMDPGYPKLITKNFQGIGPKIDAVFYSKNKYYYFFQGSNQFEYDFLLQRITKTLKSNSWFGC
Sequence of Matrix metalloproteinase-9 (P14780 whole entry): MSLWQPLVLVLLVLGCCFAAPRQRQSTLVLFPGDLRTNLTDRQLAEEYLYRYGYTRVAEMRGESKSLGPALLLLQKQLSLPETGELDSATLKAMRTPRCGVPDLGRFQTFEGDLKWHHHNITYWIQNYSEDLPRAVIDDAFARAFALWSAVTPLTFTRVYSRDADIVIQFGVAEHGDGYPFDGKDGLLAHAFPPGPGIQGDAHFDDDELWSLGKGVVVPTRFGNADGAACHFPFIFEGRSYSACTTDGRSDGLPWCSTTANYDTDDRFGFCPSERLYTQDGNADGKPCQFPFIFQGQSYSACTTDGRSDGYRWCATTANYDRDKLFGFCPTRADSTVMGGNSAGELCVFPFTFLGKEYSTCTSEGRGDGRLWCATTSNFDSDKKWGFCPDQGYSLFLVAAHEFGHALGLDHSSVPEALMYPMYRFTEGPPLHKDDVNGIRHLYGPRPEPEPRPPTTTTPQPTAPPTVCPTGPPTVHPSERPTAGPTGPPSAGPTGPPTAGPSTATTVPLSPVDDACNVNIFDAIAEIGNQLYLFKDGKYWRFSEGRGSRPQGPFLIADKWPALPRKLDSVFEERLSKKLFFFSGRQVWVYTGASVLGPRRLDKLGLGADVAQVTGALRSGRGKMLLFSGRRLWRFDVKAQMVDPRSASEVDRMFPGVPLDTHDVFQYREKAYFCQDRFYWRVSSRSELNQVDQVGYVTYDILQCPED
Sequence of Stromelysin-1 (P08254 whole entry, the tested form may be a part): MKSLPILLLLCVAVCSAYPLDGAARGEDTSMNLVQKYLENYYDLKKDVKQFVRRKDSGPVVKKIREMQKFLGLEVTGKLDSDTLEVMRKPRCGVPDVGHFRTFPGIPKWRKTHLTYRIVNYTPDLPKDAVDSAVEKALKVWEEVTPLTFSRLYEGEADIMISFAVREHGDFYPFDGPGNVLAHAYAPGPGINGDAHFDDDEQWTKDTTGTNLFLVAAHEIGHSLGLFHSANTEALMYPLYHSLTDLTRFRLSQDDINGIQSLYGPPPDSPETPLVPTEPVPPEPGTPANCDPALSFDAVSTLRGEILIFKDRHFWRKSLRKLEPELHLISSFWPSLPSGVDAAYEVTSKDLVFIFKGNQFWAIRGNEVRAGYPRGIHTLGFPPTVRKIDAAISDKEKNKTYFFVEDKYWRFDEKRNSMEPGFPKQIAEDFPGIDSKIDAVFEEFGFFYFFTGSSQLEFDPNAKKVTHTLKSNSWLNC

For the compound `CC1(C)SCCN(S(=O)(=O)c2ccc(OCC#CCO)cc2)[C@H]1C(=O)NO`, the IC50 in [1] was 4 nM; in data set [2], 120 nM; in data set [3] it was 158 nM. The same compound gave a solubility in data set [4] of 90 µM (≈ 37.3 µg/mL).
With `Cc1cc(COc2ccc(S(=O)(=O)N3CCN(C(=O)C(C)(C)C)C(C(=O)NO)C3)cc2)c2c(n1)CCCC2` (centres undefined), the IC50 in [5] was 930 nM; in data set [1] it was 12 nM; against Stromelysin-1 it was > 10000 nM; in data set [7], > 10000 nM; in data set [10] it was > 10000 nM; at Interstitial collagenase, > 10000 nM. Further, the IC50 was 1300 nM in data set [2] and > 10000 nM in data set [13]. Moreover, in [6], the “Ratio EC50” value worked out at 1. Further, the results for the solubility in data set [8] and in data set [4] were > 55 µM and 20 µM (≈ 10.9 µg/mL), respectively. Besides, the remaining at […], 1 µM in [9] amounted to 47%. In addition, the half-life at 1 µM in data set [11] is > 24 h. For the same compound, the hepatocyte CLint at […], 1 µM in data set [12] was found to be 14 µL/min/1e6 cells. In [14], this compound gave a fraction unbound at 4 h, 5 µM of 0.03.

As usually defined, the IC50 is the midpoint of a concentration-inhibition curve. The solubility is how much of the substance goes into solution per volume. The term half-life denotes the time in which the quantity being followed falls by half. A higher half-life goes with slow loss. One may read the fraction unbound as the share of the substance not bound to proteins or other matrix. Read a low fraction unbound as little free substance.
